{"source": "patent US6673832B1", "about": "“Methods for identifying compounds for treating pain” (priority 1998, dated 2004)", "key": {"[1]": {"system": "ET-1-induced hindpaw flinching", "test": "Blockade of ET-1-induced hindpaw flinching", "format": "in vivo, rat", "settings": "for effect on ET-1 induced hindpaw flinching: antagonist 3 mM epineurial, 20, 10 and 0 min prior to ET-1 400 μM; for significance of difference from ET-1 alone in hindpaw flinching (FIG. 3): antagonist 3 mM, 20, 10 and 0 min prior to ET-1 400 μM", "from_the_text": "(§1) Surgical Procedures. Adult male Sprague Dawley rats (175-225 g) were anesthetized with an intermediate-onset, short-acting volatile anesthetic (Sevaflurane, Abbott Laboratories, North Chicago, Ill.). After shaving of the hair over the left or right flank and incision of the skin, blunt dissection was made through the biceps femoris, the sciatic nerve exposed by careful microdissection away from the surrounding connective tissue, and gently elevated by insertion of a small curved hemostat placed beneath it. Following drug administration, as described below, the biceps femoris was closed with a single silk suture, and the skin closed with surgical staples.\n(§2) Drug administration. The following drugs were applied epineurially: 1) 40-800 μM endothelin-1 (ET-1) (synthetic, 98% pure peptide content, American Peptides Co., Sunnyvale, Calif.); 2) the selective endothelin-A receptor antagonist, BQ-123 (American Peptides Co.; Sunnyvale, Calif.) at 3 mM; 3) the selective endothelin-B receptor antagonist, BQ-788 (American Peptides Co.; Sunnyvale, Calif.) at 3 mM; and 400 μM epinephrine (American Regent Laboratories, Inc., Shirley, N.Y.).\n(§3) All drugs were dissolved in phosphate buffered saline (PBS, pH=7.4), and applied in 40 μl volumes to the epineurial surface of the exposed sciatic nerve (n=10 rats/condition). The total time for each drug application was 3-4 min. BQ-123 and BQ-788 were applied in 3 stages: 20 min prior to, 10 min prior to and 30 sec before ET-1 application. PBS was administered to control animals. Excess drug or PBS solution was absorbed by cotton gauze placed at the edge of the exposed nerve.\nMorphine was administered systemically immediately before anesthesia (10 mg/kg, ip). Naloxone was administered systemically 20 min after the completion of ET-1 application (2 mg/kg, ip).\n(§4) Behavioral evaluation. […] Behavioral measurements were then performed with animals freely moving on a flat surface enclosed by an inverted large Plexiglas cage. The total number of ipsilateral and contralateral spontaneous hindpaw flinches (operationally defined as complete lifting of the hindpaw off the testing surface) were counted for consecutive 5 minute periods for a total 60 minute observation period. The total duration of hindpaw lifting and time spent exploring were also recorded."}, "CCI rats": {"system": "CCI rats", "test": "Thermal hyperalgesia (hindpaw withdrawal latency) after sciatic nerve CCI", "format": "in vivo, rat", "experimental": "(§5) CCI surgery. The sciatic nerve of a rat was exposed after blunt dissection of the biceps femoris. Four chromic gut ligatures (4-0) were placed around a […] section of sciatic nerve in the mid-thigh region. The ligatures were applied so that they constricted the diameter of the nerve just enough to impede circulation through the superficial vasculature (as visualized under an operating microscope at 40×). Sham-operated rats received an identical exposure of the left sciatic nerve without CCI. A coding system blinded the investigators to the nature of the surgery performed on individual rats.\nDexamethasone inhibits CCI-induced pain sensitivity. […] Thermal hyperalgesia was defined as a reduction in the latency to hindpaw withdrawal during a thermal stimulus applied to the plantar surface. […] Presumably, chemotactic signals overwhelmed the effects of DEX by 10 days to account for differences from baseline and between hindpaws at this timepoint (FIG. 8B)."}, "circulating leukocytes": {"system": "circulating leukocytes", "settings": "for Mean number of leukocytes: cyclophosphamide 100 mg/kg", "from_the_text": "Complete blood counts were serially determined on all animals receiving treatments."}, "normal rats": {"system": "normal rats", "settings": "cyclophosphamide treatment, FIGS. 11A and B", "quoted_text": "For these experiments only, different groups of treated animals were tested (alternating fashion) on each test day to limit the amount of blood drawn."}, "[2]": {"system": "sciatic nerve in rats with a chronic constriction injury", "test": "Leukocytic profiles in sciatic nerve sections after CCI", "format": "in vivo, rat", "experimental": "as §5\nHistology. To compare the extent and type of cellular inflammation around the peripheral nerve due to CCI between DEX- and saline-treated rats, the ligated sciatic nerve was processed for histological analysis. At 3, 5, 7, and 10 days post-CCI, animals were euthanized with 100 mg/kg intraperitoneal sodium pentobarbital, and then transcardially perfused first with 50 ml of cold 0.9% NaCl, 1 ml/g body weight of 4% paraformaldehyde in 0.01 M phosphate buffered saline, pH 7.4 (PBS). A 2-3 cm section of sciatic nerve, or a 1 cm section of L5 and L6 spinal nerves, which included material at the ligation site, as well as that just proximal and distal to ligation, was placed in 0.01 M PBS, 4% paraformaldehyde to post-fix for 2 hours. Tissue was then embedded in paraffin, cut in 10-30 μm sections on a vibratome, and placed on glass slides. Slides were deparaffinized and then hydrated in distilled water prior to staining in freshly filtered Harris' hematoxylin for 6-15 min. After washing in running tap water for 2-5 min, sections were differentiated in 1% acid alcohol, washed briefly in tap water, and then placed in weak ammonia water until sections are bright blue. The sections were then washed thoroughly in running tap water, transferred to 80% ethanol, and then counterstained in eosin-phloxine solution prior to dehydration and mounting with Permount.\nQuantitation of leukocytes in nerve sections. To detect leukocytes in injured peripheral nerve, both cellular and […] were used. To be included in the leukocyte cell count, leukocytes had to 1) have a nucleus which was clearly visible and characteristic of an infiltrating macrophage (bean-shaped nucleus), neutrophil (polymorphic nucleus) or lymphocyte (dense nucleus that fills the cytoplasm); 2) have a “foamy” macrophage appearance typical of a myelin-ingesting phagocytes; and 3) be present within the endoneurial space. Cells present within vascular spaces or containing nuclei that could not be clearly differentiated from activated Schwann cells, fibroblasts or endothelial cells were not counted."}, "rat sciatic nerve": {"system": "rat sciatic nerve", "test": "Epineurial application of drug to rat sciatic nerve, spontaneous hindpaw flinching", "format": "in vivo", "from_the_text": "as §1, §2, §3\nIn experiments involving repeated administration of ET-1, animals were re-anesthetized 75-80 min after surgery (time point after which no further hindpaw flinching was observed, as described below), and 400 μM ET-1 was applied in the same volume, as described above. Behavioral evaluation was performed, as described below, for an additional 60 min.\nas §4\nData Analysis. The peak frequency of hindpaw flinching, effects at 10 min post-drug administration, and area-under-the-curve (without approximation) from 0-60 min were all used to describe response-concentration functions."}, "E1A cells": {"system": "E1A cells", "test": "Microfluorometry (Fura-2) of intracellular calcium in E1A cells", "format": "cell-based, rat", "experimental": "Microfluorometry in E1A cells. E1A cells (retrovirally-transformed rat dorsal root ganglion cells) were grown as a monolayer on poly-L-lysine coated coverslips in Dulbecco's modified eagle media supplemented with 10% fetal bovine serum at 37° C. in a humified atmosphere (5% CO2−95% air). Cells were used 48-72 hours after plating, at a confluence of 75 to 90%. The concentration of intracellular calcium was determined by dual excitation microfluorometry, using the calcium sensitive dye Fura-2 (Grynkiewicz, et.al., J. Biol. Chem. 260: 3440-3450, 1985). E1A cells were washed once with D-PBS (with Ca^++) and then incubated for 30 min at room temperature in D-PBS (with Ca^++) containing 7.5 μM Fura-2/AM and 0.00125% (wt/vol) pluronic-DMSO. The cells were then washed twice in D-PBS (with Ca^++) and incubated for an additional 30 minutes to allow cleavage of the Fura-2/AM to the active Fura-2.\nExperiments were conducted with the coverslips in a perfusion chamber of 0.4 ml, with a constant flow rate of 4 ml/min. Each coverslip was equilibrated in D-PBS for 2 min prior to beginning an experiment. […]\nMicrofluorometry was performed with an inverted epifluoroscence microscope connected to a light source which provided two alternating wavelengths (Photon Technology International Deltascan). […] Background fluorescence was subtracted from each trial."}, "[3]": {"settings": "naloxone 2 mg/kg ip, 20 min after ET-1"}}, "note": "Where two headings read alike, the source gives them in different places. Square brackets hold non-standard residues; d marks the D form. Peptide text beside a SMILES is read from it."}
{"compound": "CC(C)C[C@@H]1NC(=O)[C@@H](C(C)C)NC(=O)[C@@H]2CCCN2C(=O)[C@@H](CC(=O)O)NC(=O)[C@@H](Cc2c[nH]c3ccccc23)NC1=O", "note": "[BQ-123] (cyclo(L[dW][dD]P[dV]))", "values": [{"measurement": "effect on ET-1 induced hindpaw flinching", "setting": "[1]", "value": "completely blocked"}, {"measurement": "significance of difference from ET-1 alone in hindpaw flinching (FIG. 3)", "setting": "[1]", "value": "significant at every time point after 5 min"}]}
{"compound": "CCCC[C@@H](NC(=O)[C@@H](Cc1cn(C(=O)OC)c2ccccc12)NC(=O)[C@H](CC(C)(C)C)NC(=O)N1[C@H](C)CCC[C@@H]1C)C(=O)O", "note": "[BQ-788]", "values": [{"measurement": "effect on ET-1 induced hindpaw flinching", "setting": "[1]", "value": "reduced hindpaw flinching significantly only at the 40 and 45 min timepoints"}, {"measurement": "significance of difference from ET-1 alone in hindpaw flinching (FIG. 3)", "setting": "[1]", "value": "significant at 45 and 50 min"}]}
{"compound": "O=P1(N(CCCl)CCCl)NCCCO1", "note": "(centres unmarked) [Cyclophosphamide, cyclophosphamide]", "values": [{"measurement": "effect on hyperalgesia response in CCI-treated rats", "setting": "CCI rats; CYCLO 100 mg/kg alternate days×3 prior to CCI, until leukocyte counts returned toward normal 10 days post-surgery", "value": "blocked the hyperalgesia response"}, {"measurement": "effect on circulating leukocyte numbers", "setting": "circulating leukocytes; 100 mg/kg on alternate days×3 days, pre-operatively", "value": "markedly reduced"}, {"measurement": "Mean number of leukocytes", "setting": "circulating leukocytes; 1 day", "value": "0.4 ± 0.1 10^3/ml"}, {"measurement": "Mean number of leukocytes", "setting": "circulating leukocytes; 3 days", "value": "1.0 ± 0.3 10^3/ml"}, {"measurement": "Mean number of leukocytes", "setting": "circulating leukocytes; 5 days", "value": "0.5 ± 0.4 10^3/ml"}, {"measurement": "Mean number of leukocytes", "setting": "circulating leukocytes; 8 days", "value": "4.6 ± .6 10^3/ml"}, {"measurement": "Mean number of leukocytes", "setting": "circulating leukocytes; 10 days", "value": "7.3 ± 1.8 10^3/ml"}, {"measurement": "Mean number of leukocytes", "setting": "circulating leukocytes; Baseline", "value": "9.2 ± 0.7 10^3/ml"}, {"measurement": "Total white blood cell counts", "setting": "circulating leukocytes; CYCLO-treated CCI rats, normal rats approximately 9×10^3", "value": "< 1000", "unit": "µL⁻¹"}, {"measurement": "analgesic effect with respect to thermal pain stimulation in normal animals", "setting": "normal rats", "value": "no analgesic effects"}]}
{"compound": "C[C@@H]1C[C@H]2[C@@H]3CCC4=CC(=O)C=C[C@]4(C)[C@@]3(F)[C@@H](O)C[C@]2(C)[C@@]1(O)C(=O)CO", "note": "[DEX, Dexamethasone]", "values": [{"measurement": "period post-CCI with differences from baseline and contralateral hindpaw eliminated", "setting": "CCI rats; DEX 1.5 mg/kg i.p. daily", "value": "3 to 7", "unit": "days"}, {"measurement": "Number of leukocytic profiles in sciatic nerve", "setting": "[2]; 3 days post-CCI, six high-power fields (0.238 mm^2), mean ± S.D.", "value": "4.2 ± 0.92"}, {"measurement": "Number of leukocytic profiles in sciatic nerve", "setting": "[2]; 5 days post-CCI, six high-power fields, n = 1", "value": 12.8}, {"measurement": "Number of leukocytic profiles in sciatic nerve", "setting": "[2]; 7 days post-CCI, six high-power fields, mean ± S.D.", "value": "23.3 ± 26.9"}, {"measurement": "Number of leukocytic profiles in sciatic nerve", "setting": "[2]; 10 days post-CCI, six high-power fields, mean ± S.D.", "value": "25.7 ± .9"}]}
{"compound": "C=CCN1CC[C@]23c4c5ccc(O)c4O[C@H]2C(=O)CC[C@@]3(O)[C@H]1C5", "note": "[Naloxone]", "values": [{"measurement": "duration of reversal of the effect of morphine", "setting": "[1]; [3]", "value": "approximately 10 min"}, {"measurement": "reversal of the effect of morphine on ET-1-induced flinching", "setting": "[1]; [3]", "value": "rapidly reversed the effect of morphine"}]}
{"compound": "CNC[C@H](O)c1ccc(O)c(O)c1", "note": "[epinephrine]", "values": [{"measurement": "hindpaw flinching after epinephrine applied to sciatic nerve", "setting": "rat sciatic nerve; 400 μM, 60 min observation period", "value": "no evidence of hindpaw flinching"}]}
{"compound": "CN1CC[C@]23c4c5ccc(O)c4O[C@H]2[C@@H](O)C=C[C@H]3[C@H]1C5", "note": "[morphine]", "values": [{"measurement": "effect on flinching induced by ET-1", "setting": "[1]; morphine 10 mg/kg ip immediately before anesthesia, ET-1 400 μM", "value": "completely blocked"}]}
{"compound": "endothelin-1 [ET-1]", "values": [{"measurement": "time of peak of flinching behavior and postural changes", "setting": "rat sciatic nerve; 400 μM ET-1", "value": "≤ 30", "unit": "min"}, {"measurement": "repetitive, spontaneous hindpaw flinching", "setting": "rat sciatic nerve; 400 μM ET-1, 40 μl epineurial, 10-60 min post-administration, vs PBS", "value": "increased"}, {"measurement": "effect at high concentration on hindpaw flinching", "setting": "rat sciatic nerve; 800 μM", "value": "apparent inhibitory effect"}, {"measurement": "concentration giving maximum frequency of hindpaw flinching", "setting": "rat sciatic nerve; 40-800 μM tested", "value": 400, "unit": "µM"}, {"measurement": "EC50", "setting": "rat sciatic nerve; 10 minutes post ET-1 administration, FIG. 4B, read-out: concentration of half-maximal effect on hindpaw flinching", "value": 300, "unit": "µM"}, {"measurement": "hindpaw flinching and postural changes after application onto or into muscles surrounding sciatic nerve", "setting": "rat sciatic nerve; same concentration of ET-1, muscle not nerve", "value": "neither increased hindpaw flinching nor postural changes"}, {"measurement": "hindpaw flinching after second (repeat) treatment", "setting": "rat sciatic nerve; second 400 μM ET-1, 15-20 min after first 60 min testing period", "value": "did not produce hindpaw flinching that was significantly different from controls"}, {"measurement": "intracellular Ca++ level reached after ET-1", "setting": "E1A cells; 400 μl pulse of 13.5 μM ET-1, resting level 50-100 nM", "value": "~500", "unit": "nM"}, {"measurement": "Fura-2 fluorescence during ET-1 administration", "setting": "E1A cells; E1A cells, FIG. 7", "value": "large, rapid, and transient increase"}]}
